For data set [1], the target named is T1, Induced myeloid leukemia cell differentiation protein Mcl-1 (Homo sapiens, UniProt Q07820). As to the kind of experiment: Binding affinity to human MCL-1 measured by competition against fluorescently labelled BH3 - Bid measured after 6 hrs by fluorescent polarization assay.
Data set [2] can be described thus: Metabolic stability in rat liver microsomes assessed as half life by LC-MS/MS analysis. The following applies: liver microsomes. The format is ADME, Microsome.
Data set [3] has as its target T2, Bcl-2-related protein A1 (Homo sapiens, UniProt Q16548).
T2 sequence (Q16548 whole entry): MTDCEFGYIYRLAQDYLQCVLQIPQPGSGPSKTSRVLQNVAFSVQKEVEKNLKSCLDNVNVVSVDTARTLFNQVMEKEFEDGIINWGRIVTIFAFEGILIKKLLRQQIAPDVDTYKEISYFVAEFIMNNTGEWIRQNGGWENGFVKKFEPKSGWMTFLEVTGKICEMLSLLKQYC
As to the kind of experiment: Binding affinity to Bfl-1 (unknown origin) pre-incubated for 30 mins followed by addition FAM-peptide further incubated for 20 mins by fluorescence polarization-based binding assay.

Data set [4] concerns the target T1, Induced myeloid leukemia cell differentiation protein Mcl-1. The data set is described as follows: Binding affinity to Mcl-1 (unknown origin) pre-incubated for 30 mins followed by addition FAM-peptide further incubated for 20 mins by fluorescence polarization-based binding assay. To be noted: read-out: Ki.
Data set [5] relates to HL-60. As to the kind of experiment: Antiproliferative activity against human HL-60 cells assessed as growth inhibition measured after 72 hrs by CCK-8 assay. The format is functional, cell-based. To be noted: HL-60, 72 h.
Data set [6] addresses Bcl-2-like protein 1 (Homo sapiens, UniProt Q07817). As to the kind of experiment: Binding affinity to Bcl-xL (unknown origin) pre-incubated for 30 mins followed by addition FAM-peptide further incubated for 20 mins by fluorescence polarization-based binding assay.
Data set [7] addresses Apoptosis regulator Bcl-2 (Homo sapiens, UniProt P10415). The data set is described as follows: Binding affinity to Bcl-2 (unknown origin) pre-incubated for 30 mins followed by addition FAM-peptide further incubated for 20 mins by fluorescence polarization-based binding assay.

T1 sequence (Q07820 whole entry): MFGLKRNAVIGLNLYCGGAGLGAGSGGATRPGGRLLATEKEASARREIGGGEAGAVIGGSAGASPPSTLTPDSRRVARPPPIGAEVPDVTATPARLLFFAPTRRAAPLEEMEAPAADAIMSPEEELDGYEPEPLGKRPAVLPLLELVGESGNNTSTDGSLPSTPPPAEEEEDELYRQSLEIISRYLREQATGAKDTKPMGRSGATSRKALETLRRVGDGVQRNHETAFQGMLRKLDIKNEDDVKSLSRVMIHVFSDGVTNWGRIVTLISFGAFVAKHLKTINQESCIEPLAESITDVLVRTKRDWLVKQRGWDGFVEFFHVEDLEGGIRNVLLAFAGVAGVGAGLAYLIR
Sequence of Apoptosis regulator Bcl-2 (P10415 whole entry): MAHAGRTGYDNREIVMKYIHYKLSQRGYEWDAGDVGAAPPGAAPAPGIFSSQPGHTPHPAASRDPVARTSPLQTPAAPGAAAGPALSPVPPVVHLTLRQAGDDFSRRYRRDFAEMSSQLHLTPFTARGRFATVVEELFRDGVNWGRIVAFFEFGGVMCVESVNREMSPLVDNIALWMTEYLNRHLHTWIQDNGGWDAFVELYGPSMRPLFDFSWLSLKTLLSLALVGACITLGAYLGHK
Sequence of Bcl-2-like protein 1 (Q07817 whole entry): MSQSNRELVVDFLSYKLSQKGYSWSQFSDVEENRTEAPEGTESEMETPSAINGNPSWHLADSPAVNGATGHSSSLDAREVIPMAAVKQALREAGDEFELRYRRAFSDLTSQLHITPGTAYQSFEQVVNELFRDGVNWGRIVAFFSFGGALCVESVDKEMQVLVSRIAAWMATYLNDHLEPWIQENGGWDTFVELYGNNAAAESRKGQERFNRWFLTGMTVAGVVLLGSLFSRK

In data set [1], `CC1(C)CC[C@@H](OC(=O)/C=C/c2ccccc2)C2C(C=O)C(C=O)C[C@H](O)[C@H]21` (some centres not stated) returned a Ki of 0.3 µM.
Take `O=C(O)Cc1ccccc1Nc1c(Cl)cccc1Cl` [DICLOFENAC]: in data set [2], the half-life was found to be 11.7 min.
In the case of `Cc1cc(OCCCc2c(C(=O)O)n(CCN3CCOCC3)c3c(-c4ccccc4Cn4cc(CCNC(=O)c5ccc(F)cc5)c5ccccc54)cccc23)cc(C)c1Cl`, the IC50 in data set [3] was above 10 µM; in data set [5] it was 7.96 µM; in data set [6] it was above 100 µM; in data set [7] it was above 100 µM. In addition, the Ki in data set [4] was 0.037 µM.

(Values after ChEMBL document CHEMBL5584309, “Discovery of Novel Mcl-1 Inhibitors with a 3-Substituted-1H-indole-1-yl Moiety Binding to the P1-P3 Pockets to Induce Apoptosis in Acute Myeloid Leukemia Cells” (J Med Chem, 2024).)
